{"source": "patent US20250282794A1", "about": "(CURADEV PHARMA LTD, priority 2022, published 2025)", "data": [{"target": "recombinant full length HPK-1 enzyme (Homo sapiens (Human), UniProt Q92918)", "sequence (Q92918 whole entry, species assumed)": "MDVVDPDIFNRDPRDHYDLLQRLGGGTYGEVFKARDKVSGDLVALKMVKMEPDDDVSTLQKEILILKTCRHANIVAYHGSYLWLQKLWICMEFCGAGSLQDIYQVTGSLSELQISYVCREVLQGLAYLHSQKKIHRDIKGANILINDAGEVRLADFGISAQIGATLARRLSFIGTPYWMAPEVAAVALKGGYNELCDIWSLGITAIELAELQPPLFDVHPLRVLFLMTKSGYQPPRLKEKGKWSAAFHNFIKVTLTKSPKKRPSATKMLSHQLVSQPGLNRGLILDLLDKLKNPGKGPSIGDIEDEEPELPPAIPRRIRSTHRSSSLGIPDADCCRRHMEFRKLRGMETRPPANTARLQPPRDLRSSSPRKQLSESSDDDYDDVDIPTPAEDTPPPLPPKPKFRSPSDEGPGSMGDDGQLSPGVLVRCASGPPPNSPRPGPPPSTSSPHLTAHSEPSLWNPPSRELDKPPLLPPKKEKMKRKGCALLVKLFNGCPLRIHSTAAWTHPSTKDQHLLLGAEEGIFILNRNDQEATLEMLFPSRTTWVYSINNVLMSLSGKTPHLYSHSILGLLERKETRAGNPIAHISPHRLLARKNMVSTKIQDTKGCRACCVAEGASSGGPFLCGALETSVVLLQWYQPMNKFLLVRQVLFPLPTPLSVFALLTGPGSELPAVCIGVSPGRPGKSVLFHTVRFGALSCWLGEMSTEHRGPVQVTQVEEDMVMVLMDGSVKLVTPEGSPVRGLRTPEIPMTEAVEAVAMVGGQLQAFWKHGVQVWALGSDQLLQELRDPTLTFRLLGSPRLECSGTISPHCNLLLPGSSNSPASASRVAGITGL", "assay": "HPK-1 biochemical enzyme assay (ADP-Glo kinase inhibition)", "conditions": "recombinant full length HPK-1 6.8 nM, 10 μM ATP, 12.5 μM MBP, 30 mins at 25° C.", "outline": "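Recombinant full-length human HPK-1 (6.8 nM) incubated 30 min at 25° C. with 10 μM ATP and 12.5 μM swine MBP in 40 mM Tris pH 7.4, 20 mM MgCl2, 50 μM DTT, 0.1 mg/mL BSA. ADP measured by ADP-Glo; IC50 from 10 concentrations, normalized to no-enzyme and vehicle controls.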", "units": {"IC50": "nM"}, "values": [{"compound": "Cc1c(Nc2cc[nH]c(=O)c2C(=O)Nc2ccc(N3CCN(C(=O)CC4CC4)CC3)cc2)cnc2c1NCCO2", "note": "[Example 312, N-(4-(4-(2-cyclopropylacetyl)piperazin-1-yl)phenyl)-4-((8-methyl-2,3-dihydro-1H-pyrido[2,3-b][1,4]oxazin-7-yl)amino)-2-oxo-1,2-dihydropyridine-3-carboxamide]", "IC50": "≤ 10"}, {"compound": "Cc1c(Nc2cc[nH]c(=O)c2C(=O)Nc2ccc(N3CCC(C)CC3)cc2)cnc2c1NCCO2", "note": "[Example 280, 4-((8-methyl-2,3-dihydro-1H-pyrido[2,3-b][1,4]oxazin-7-yl)amino)-N-(4-(4-methylpiperidin-1-yl)phenyl)-2-oxo-1,2-dihydropyridine-3-carboxamide]", "IC50": "10 to 100"}, {"compound": "CCCCC(CC)CNC(=O)c1ccc(NC(=O)c2c(Nc3cnc4c(c3C)NCCO4)cc[nH]c2=O)cc1", "note": "(centres unmarked) [Example 281, N-(4-((2-ethylhexyl)carbamoyl)phenyl)-4-((8-methyl-2,3-dihydro-1H-pyrido[2,3-b][1,4]oxazin-7-yl)amino)-2-oxo-1,2-dihydropyridine-3-carboxamide]", "IC50": "10 to 100"}, {"compound": "CCn1nccc1-c1ccc(NC(=O)c2c(Nc3cnc4c(c3C)NCCO4)cc[nH]c2=O)cc1", "note": "[Example 264, N-(4-(1-ethyl-1H-pyrazol-5-yl)phenyl)-4-((8-methyl-2,3-dihydro-1H-pyrido[2,3-b][1,4]oxazin-7-yl)amino)-2-oxo-1,2-dihydropyridine-3-carboxamide]", "IC50": "10 to 100"}, {"compound": "Cc1c(Nc2cc[nH]c(=O)c2C(=O)Nc2ccc(N3CCN(C(=O)N4CC(C)(C)C4)CC3)cc2)cnc2c1NCCO2", "note": "[Example 317, N-(4-(4-(3,3-dimethylazetidine-1-carbonyl)piperazin-1-yl)phenyl)-4-((8-methyl-2,3-dihydro-1H-pyrido[2,3-b][1,4]oxazin-7-yl)amino)-2-oxo-1,2-dihydropyridine-3-carboxamide]", "IC50": "≤ 10"}, {"compound": "Cc1nc2cc(NC(=O)c3c(Nc4cnc5c(c4C)NCCO5)cc[nH]c3=O)ccc2[nH]1", "note": "[Example 224, N-(2-methyl-1H-benzo[d]imidazol-5-yl)-4-((8-methyl-2,3-dihydro-1H-pyrido[2,3-b][1,4]oxazin-7-yl)amino)-2-oxo-1,2-dihydropyridine-3-carboxamide]", "IC50": "10 to 100"}, {"compound": "CC(=O)Nc1ccc(NC(=O)c2c(Nc3cnc4c(c3C)NCCO4)cc[nH]c2=O)cn1", "note": "[Example 243, N-(6-acetamidopyridin-3-yl)-4-((8-methyl-2,3-dihydro-1H-pyrido[2,3-b][1,4]oxazin-7-yl)amino)-2-oxo-1,2-dihydropyridine-3-carboxamide]", "IC50": "100 to 1000"}, {"compound": "Cc1c(Nc2cc[nH]c(=O)c2C(=O)Nc2ccc(N3CCN(C)CC3)c(C(=O)O)c2)cnc2c1NCCO2", "note": "[Example 215, 5-(4-((8-methyl-2,3-dihydro-1H-pyrido[2,3-b][1,4]oxazin-7-yl)amino)-2-oxo-1,2-dihydropyridine-3-carboxamido)-2-(4-methylpiperazin-1-yl)benzoic acid]", "IC50": "100 to 1000"}, {"compound": "Cc1cc(NC(=O)c2c(Nc3cnc4c(c3C)NCCO4)cc[nH]c2=O)ccc1N1CCN(C2CC2)CC1", "note": "[Example 400, N-(4-(4-cyclopropylpiperazin-1-yl)-3-methylphenyl)-4-((8-methyl-2,3-dihydro-1H-pyrido[2,3-b][1,4]oxazin-7-yl)amino)-2-oxo-1,2-dihydropyridine-3-carboxamide]", "IC50": "10 to 100"}, {"compound": "Cc1c(Nc2cc[nH]c(=O)c2C(=O)Nc2ccc(N3CCN(C(=O)N4CCCC4)CC3)cc2)cnc2c1NCCO2", "note": "[Example 324, 4-((8-methyl-2,3-dihydro-1H-pyrido[2,3-b][1,4]oxazin-7-yl)amino)-2-oxo-N-(4-(4-(pyrrolidine-1-carbonyl)piperazin-1-yl)phenyl)-1,2-dihydropyridine-3-carboxamide]", "IC50": "≤ 10"}, {"compound": "Cc1c(Nc2cc[nH]c(=O)c2C(=O)Nc2ccc(N3CCN(C)CC3CO)cc2)cnc2c1NCCO2", "note": "(centres unmarked) [Example 408, N-(4-(2-(hydroxymethyl)-4-methylpiperazin-1-yl)phenyl)-4-((8-methyl-2,3-dihydro-1H-pyrido[2,3-b][1,4]oxazin-7-yl)amino)-2-oxo-1,2-dihydropyridine-3-carboxamide]", "IC50": "10 to 100"}, {"compound": "Cc1c(Nc2cc[nH]c(=O)c2C(=O)Nc2ccc(N3CCN(C(=O)C4CN(C)C4)CC3)cc2)cnc2c1NCCO2", "note": "[Example 373, 4-((8-methyl-2,3-dihydro-1H-pyrido[2,3-b][1,4]oxazin-7-yl)amino)-N-(4-(4-(1-methylazetidine-3-carbonyl)piperazin-1-yl)phenyl)-2-oxo-1,2-dihydropyridine-3-carboxamide]", "IC50": "10 to 100"}, {"compound": "Cc1c(Nc2cc[nH]c(=O)c2C(=O)Nc2ccc(N3CCN(C4(C)COC4)CC3)cc2)cnc2c1NCCO2", "note": "[Example 380, 4-((8-methyl-2,3-dihydro-1H-pyrido[2,3-b][1,4]oxazin-7-yl)amino)-N-(4-(4-(3-methyloxetan-3-yl)piperazin-1-yl)phenyl)-2-oxo-1,2-dihydropyridine-3-carboxamide]", "IC50": "10 to 100"}, {"compound": "Cc1c(Nc2cc[nH]c(=O)c2C(=O)Nc2ccc(N3CCN(C(=O)C4CC4(C)C)CC3)cc2)cnc2c1NCCO2", "note": "(centres unmarked) [Example 309, N-(4-(4-(2,2-dimethylcyclopropane-1-carbonyl)piperazin-1-yl)phenyl)-4-((8-methyl-2,3-dihydro-1H-pyrido[2,3-b][1,4]oxazin-7-yl)amino)-2-oxo-1,2-dihydropyridine-3-carboxamide]", "IC50": "≤ 10"}, {"compound": "Cc1c(Nc2cc[nH]c(=O)c2C(=O)Nc2ccc(N3CCN(C)CC3)c(F)c2)cnc2c1NCCO2", "note": "[Example 96, N-(3-fluoro-4-(4-methylpiperazin-1-yl)phenyl)-4-((8-methyl-2,3-dihydro-1H-pyrido[2,3-b][1,4]oxazin-7-yl)amino)-2-oxo-1,2-dihydropyridine-3-carboxamide]", "IC50": "≤ 10"}, {"compound": "Cc1c(Nc2cc[nH]c(=O)c2C(=O)Nc2ccc3c(c2)CCCN3)cnc2c1NCCO2", "note": "[Example 254, 4-((8-methyl-2,3-dihydro-1H-pyrido[2,3-b][1,4]oxazin-7-yl)amino)-2-oxo-N-(1,2,3,4-tetrahydroquinolin-6-yl)-1,2-dihydropyridine-3-carboxamide]", "IC50": "10 to 100"}, {"compound": "Cc1c(Nc2cc[nH]c(=O)c2C(=O)Nc2ccc3c(c2)OCC2CN(C)CCN32)cnc2c1NCCO2", "note": "(centres unmarked) [Example 168, N-(3-Methyl-1,2,3,4,4a,5-hexahydrobenzo[b]pyrazino[1,2-d][1,4]oxazin-8-yl)-4-((8-methyl-2,3-dihydro-1H-pyrido[2,3-b][1,4]oxazin-7-yl)amino)-2-oxo-1,2-dihydropyridine-3-carboxamide]", "IC50": "≤ 10"}, {"compound": "Cc1c(Nc2cc[nH]c(=O)c2C(=O)Nc2ccc(N3CCN(C)CC3)cc2F)cnc2c1NCCO2", "note": "[Example 207, N-(2-fluoro-4-(4-methylpiperazin-1-yl)phenyl)-4-((8-methyl-2,3-dihydro-1H-pyrido[2,3-b][1,4]oxazin-7-yl)amino)-2-oxo-1,2-dihydropyridine-3-carboxamide]", "IC50": "10 to 100"}, {"compound": "Cc1c(Nc2cc[nH]c(=O)c2C(=O)Nc2ccc(N3CCN(Cc4ccn[nH]4)CC3)cc2)cnc2c1NCCO2", "note": "[Example 174, N-(4-(4-((1H-pyrazol-5-yl)methyl)piperazin-1-yl)phenyl)-4-((8-methyl-2,3-dihydro-1H-pyrido[2,3-b][1,4]oxazin-7-yl)amino)-2-oxo-1,2-dihydropyridine-3-carboxamide]", "IC50": "≤ 10"}, {"compound": "Cc1c(Nc2cc[nH]c(=O)c2C(=O)Nc2ccc(N3CCN(C)C[C@@H]3C)cc2)cnc2c1NCCO2", "note": "[Example 266, (S)-N-(4-(2,4-dimethylpiperazin-1-yl)phenyl)-4-((8-methyl-2,3-dihydro-1H-pyrido[2,3-b][1,4]oxazin-7-yl)amino)-2-oxo-1,2-dihydropyridine-3-carboxamide]", "IC50": "≤ 10"}, {"compound": "Cc1c(Nc2cc[nH]c(=O)c2C(=O)Nc2ccc(N3CCN(c4ccn(C)n4)CC3)cc2)cnc2c1NCC(C)O2", "note": "(centres unmarked) [Example 407, 4-((3,8-dimethyl-2,3-dihydro-1H-pyrido[2,3-b][1,4]oxazin-7-yl)amino)-N-(4-(4-(1-methyl-1H-pyrazol-3-yl)piperazin-1-yl)phenyl)-2-oxo-1,2-dihydropyridine-3-carboxamide]", "IC50": "10 to 100"}, {"compound": "Cc1c(Nc2cc[nH]c(=O)c2C(=O)Nc2ccc(N3CCC(C(C)O)CC3)cc2)cnc2c1NCCO2", "note": "(centres unmarked) [Example 302, N-(4-(4-(1-hydroxyethyl)piperidin-1-yl)phenyl)-4-((8-methyl-2,3-dihydro-1H-pyrido[2,3-b][1,4]oxazin-7-yl)amino)-2-oxo-1,2-dihydropyridine-3-carboxamide]", "IC50": "≤ 10"}, {"compound": "Cc1c(Nc2cc[nH]c(=O)c2C(=O)Nc2ccc(N3CCNCC3)cc2)cnc2c1NCCO2", "note": "[Example 139, 4-((8-methyl-2,3-dihydro-1H-pyrido[2,3-b][1,4]oxazin-7-yl)amino)-2-oxo-N-(4-(piperazin-1-yl)phenyl)-1,2-dihydropyridine-3-carboxamide]", "IC50": "≤ 10"}, {"compound": "Cc1c(Nc2cc[nH]c(=O)c2C(=O)Nc2ccc(S(C)(=O)=O)cc2)cnc2c1NCCO2", "note": "[Example 223, 4-((8-methyl-2,3-dihydro-1H-pyrido[2,3-b][1,4]oxazin-7-yl)amino)-N-(4-(methylsulfonyl)phenyl)-2-oxo-1,2-dihydropyridine-3-carboxamide]", "IC50": "10 to 100"}, {"compound": "COCC(C)N1CCN(c2ccc(NC(=O)c3c(Nc4cnc5c(c4C)NCCO5)cc[nH]c3=O)cc2)CC1", "note": "(centres unmarked) [Example 351, N-(4-(4-(1-methoxypropan-2-yl)piperazin-1-yl)phenyl)-4-((8-methyl-2,3-dihydro-1H-pyrido[2,3-b][1,4]oxazin-7-yl)amino)-2-oxo-1,2-dihydropyridine-3-carboxamide]", "IC50": "10 to 100"}, {"compound": "Cc1c(Nc2cc[nH]c(=O)c2C(=O)Nc2ccc(N3CCN(C)CC3)cc2)cnc2c1NCC(C)O2", "note": "(centres unmarked) [Example 125, 4-((3,8-dimethyl-2,3-dihydro-1H-pyrido[2,3-b][1,4]oxazin-7-yl)amino)-N-(4-(4-methylpiperazin-1-yl)phenyl)-2-oxo-1,2-dihydropyridine-3-carboxamide]", "IC50": "10 to 100"}]}]}
